This note sets out measurements from US11337970B2, “Inhibitors of indoleamine 2,3-dioxygenase and methods of their use” (BRISTOL-MYERS SQUIBB COMPANY, priority 2016, dated 2022).

This experiment deals with T1, indoleamine 2,3-dioxygenase (IDO) (Homo sapiens, UniProt P14902).
T1 construct: host or cells: HeLa cells stimulated with IFNγ (25 ng/mL)
In words: HeLa cell-based indoleamine 2,3-dioxygenase (IDO) assay (kynurenine production). The conditions noted are these: HeLa cells, IFNγ 25 ng/mL, 48 hour incubation, absorbance at 480 nm. The method, then:
Assessment of inhibitor activity in HeLa cell-based indoleamine 2,3-dioxygenase (IDO) assay:
HeLa (ATCC® CCL-2) cells were obtained from the ATCC® and cultured in Dulbecco's Modified Eagle Medium supplemented with 4.5 g/L glucose, […] (#10-013-CV, Corning), 2 mM L-alanyl-L-glutamine dipeptide (#35050-061, Gibco), 100U/mL penicillin, 100 μg/mL streptomycin (#SV30010, HyClone) and 10% fetal bovine serum (#SH30071.03 HyClone). Cells were maintained in a humidified incubator at 37° C. in 5% CO2.
IDO activity was assessed as a function of kynurenine production as follows: HeLa cells were seeded in a 96-well culture plate at a density of 5,000 cells/well and allowed to equilibrate overnight. After 24 hours, the media was aspirated and replaced with media containing IFNγ (#285-IF/CF, R&D Systems) at a final concentration of 25 ng/mL. A serial dilution of each test compound was added to the cells in a total volume of 200 μL of culture medium. After a further 48 hour incubation, 170 μL of supernatant was transferred from each well to a fresh 96-well plate. 12.1 μL of 6.1N trichloroacetic acid (#T0699, Sigma-Aldrich) was added to each well and mixed, followed by incubation at 65° C. for 20 minutes to hydrolyze N-formylkynurenine, the product of indoleamine 2,3-dioxygenase, to kynurenine. The reaction mixture was then centrifuged for 10 mins at 500×g to sediment the precipitate. 100 μL of the supernatant was transferred from each well to afresh 96-well plate. 100 μl of 2% (w/v) p-dimethylaminobenzaldehyde (#15647-7, Sigma-Aldrich) in acetic acid (#A6283, Sigma-Aldrich) was added to each well mixed and incubated at room temperature for 20 mins. Kynurenine concentrations were determined by measuring absorbance at 480 nm and calibrating against an L-kynurenine (#K8625, Sigma-Aldrich) standard curve using a SPECTRAMAX® M2e microplate reader (Molecular Devices). The percentage activity at each inhibitor concentration was determined and IC50 values assessed using nonlinear regression.

T1 sequence (P14902 whole entry): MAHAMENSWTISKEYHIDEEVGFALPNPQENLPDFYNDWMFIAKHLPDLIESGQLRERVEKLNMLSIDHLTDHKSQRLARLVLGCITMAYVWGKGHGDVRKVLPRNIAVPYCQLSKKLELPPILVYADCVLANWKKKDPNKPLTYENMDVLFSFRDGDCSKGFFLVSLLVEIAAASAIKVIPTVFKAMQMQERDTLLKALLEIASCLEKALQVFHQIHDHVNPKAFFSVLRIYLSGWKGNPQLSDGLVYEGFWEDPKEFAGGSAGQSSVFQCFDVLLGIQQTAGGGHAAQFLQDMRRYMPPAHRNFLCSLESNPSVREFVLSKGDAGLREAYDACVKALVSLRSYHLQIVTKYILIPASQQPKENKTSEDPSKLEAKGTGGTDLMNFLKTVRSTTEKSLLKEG

For `CCOCC(c1nc2ccc(Cl)cc2[nH]1)[C@H]1CC[C@@H](c2ccnc(F)c2C)CC1` (single isomer, unassigned) [Example 25-2, 6-chloro-2-(2-ethoxy-1-((cis)-4-(2-fluoro-3-methylpyridin-4-yl)cyclohexyl)ethyl)-1H-benzo[d]imidazole], the midpoint of inhibition, the IC50, lay at 22.9 nM. Under `CC[C@H](c1nc2ncc(Cl)cc2[nH]1)[C@H]1CC[C@@H](c2ccnc3ccc(F)cc32)CC1` (single isomer, unassigned) [Example 21-3, 4-(4-(1-(6-chloro-1H-imidazo[4,5-b]pyridin-2-yl)propyl)cyclohexyl)-6-fluoroquinoline] stands 5.1 nM; under `C[C@@H](c1nc2cc(C(F)(F)F)ccc2[nH]1)[C@H]1CC[C@@H](c2ccnc3ccc(F)cc32)CC1` [Example 45, 6-fluoro-4-((1S,4s)-4-((R)-1-(5-(trifluoromethyl)-1H-benzo[d]imidazol-2-yl)ethyl)cyclohexyl) quinoline], 3.1 nM. For `C[C@@H](c1nc2cc(F)c(F)cc2[nH]1)[C@H]1CC[C@@H](c2ccnc3ccc(F)cc32)CC1` [Example 40], the IC50 is 2.7 nM. The compound `C[C@H](c1nc2ccc(Cl)cc2[nH]1)[C@H]1CC[C@@H](c2ccnc(C(F)(F)F)c2)CC1` (single isomer, unassigned) [Example 39-3, 6-chloro-2-(1-(4-(2-(trifluoromethyl)pyridin-4-yl)cyclohexyl)ethyl)-1H-benzo[d]imidazole] showed an IC50 of 117 nM. The figure for `C[C@H]([C@H]1CC[C@@H](c2ccnc3ccc(F)cc32)CC1)n1cnc2ccccc2c1=O` [Example 28, 3-((R)-1-((cis)-4-(6-fluoroquinolin-4-yl)cyclohexyl)ethyl)quinazolin-4(3H)-one] is 834 nM; for `CCC(c1nc2ncc(Cl)cc2[nH]1)[C@H]1CC[C@H](Oc2ccnc3ccccc23)CC1` (single isomer, unassigned) [Example 20-1] it is 6 nM. Under `Cc1ccc2nc([C@H](C)[C@H]3CC[C@@H](c4ccnc5ccc(F)cc54)CC3)cn2n1` [Example 30, 6-fluoro-4-((cis)-4-((R)-1-(6-methylimidazo[1,2-b]pyridazin-2-yl)ethyl)cyclohexyl)quinoline] stands 96.6 nM; under `C[C@@H](c1nc2cc(C#N)ccc2[nH]1)[C@H]1CC[C@@H](c2ccnc3ccc(F)cc32)CC1` [Example 49, 2-((R)-1-((1s,4S)-4-(6-fluoroquinolin-4-yl)cyclohexyl)ethyl)-1H-benzo[d]imidazole-5-carbonitrile], 13.4 nM.

`CCOCC(c1nc2ccc(Cl)cc2[nH]1)[C@H]1CC[C@@H](c2ccnc(F)c2C)CC1` (single isomer, unassigned) [Example 25-1, 6-chloro-2-(2-ethoxy-1-((cis)-4-(2-fluoro-3-methylpyridin-4-yl)cyclohexyl)ethyl)-1H-benzo[d]imidazole] displayed an IC50 of 10.2 nM. Under `COCC(c1nc2ccc(Cl)cc2[nH]1)[C@H]1CC[C@@H](c2ccnc3ccc(C(F)(F)F)cc32)CC1` (mixture of isomers) [Example 18, (±)-4-((cis)-4-(1-(6-chloro-1H-benzo[d]imidazol-2-yl)-2-methoxyethyl)cyclohexyl)-6-(trifluoromethyl)quinoline] stands 12.1 nM; under `C[C@@H](c1nc2cc(OC(F)(F)F)ccc2[nH]1)[C@H]1CC[C@@H](c2ccnc3ccc(F)cc32)CC1` [Example 48, 6-fluoro-4-((1S,4s)-4-((R)-1-(5-(trifluoromethoxy)-1H-benzo[d]imidazol-2-yl)ethyl)cyclohexyl) quinoline], 10.7 nM. Under `CCOCC(c1nc2ccc(Cl)cc2[nH]1)[C@H]1CC[C@@H](c2ccnc(F)c2C)CC1` (mixture of isomers) [Example 25, (±)-6-chloro-2-(2-ethoxy-1-((cis)-4-(2-fluoro-3-methylpyridin-4-yl)cyclohexyl)ethyl)-1H-benzo[d]imidazole] stands 44.9 nM; under `C[C@@H](c1nc2cc(Cl)c(F)cc2[nH]1)[C@H]1CC[C@@H](c2ccnc3ccc(F)cc32)CC1` [Example 42], 3.7 nM.

`C[C@@H](c1nc2cc(C(F)(F)F)cc(Cl)c2[nH]1)[C@H]1CC[C@@H](c2ccnc3ccc(F)cc32)CC1` [Example 46, 4-((1S,4s)-4-((R)-1-(7-chloro-5-(trifluoromethyl)-1H-benzo[d]imidazol-2-yl)ethyl)cyclohexyl)-6-fluoroquinoline] returned an IC50 of 12.2 nM. The figure for `CCC(c1nc2ccc(Cl)cc2[nH]1)[C@H]1CC[C@@H](c2ccnc(F)c2C)CC1` (single isomer, unassigned) [Example 23-1, 6-chloro-2-(1-((cis)-4-(2-fluoro-3-methylpyridin-4-yl)cyclohexyl)-3-propyl)-1H-benzo[d]imidazole] is 998 nM; for `CC(c1nc2ccc(Cl)cc2[nH]1)C1CCC(c2ccnc3ncccc23)CC1` (mixture of isomers) [Example 34, (±)-Cis and trans-(4-(1-(6-chloro-1H-benzo[d]imidazol-2-yl)ethyl)cyclohexyl)-1,8-naphthyridine] it is 68.1 nM.

With `C[C@H](c1nc2ccc(Cl)cc2[nH]1)[C@H]1CC[C@@H](c2ccnc(C(F)(F)F)c2)CC1` (single isomer, unassigned) [Example 39-1, 6-chloro-2-(1-(4-(2-(trifluoromethyl)pyridin-4-yl)cyclohexyl)ethyl)-1H-benzo[d]imidazole], the IC50 came out at 170 nM. Under `Fc1ccc2nccc(C3CCC(C(CC(F)(F)F)c4nc5ccc(Cl)cc5[nH]4)CC3)c2c1` (racemic) [Example 33, (±)-Cis and trans-4-(4-(1-(6-chloro-1H-benzo[d]imidazol-2-yl)-3,3,3-trifluoropropyl)cyclohexyl)-6-fluoroquinoline] stands 7.5 nM. The figure for `CCC(c1nc2ncc(Cl)cc2[nH]1)[C@H]1CC[C@@H](c2ccnc(F)c2C)CC1` (single isomer, unassigned) [Example 24-1, 6-chloro-2-(1-((cis)-4-(2-fluoro-3-methylpyridin-4-yl)cyclohexyl)-3-propyl)-1H-imidazo[4,5-b]pyridine] is 375 nM. Under `CC[C@H](c1nc2ncc(Cl)cc2[nH]1)[C@H]1CC[C@@H](c2ccnc3ccc(F)cc32)CC1` (single isomer, unassigned) [Example 21-4, 4-(4-(1-(6-chloro-1H-imidazo[4,5-b]pyridin-2-yl)propyl)cyclohexyl)-6-fluoroquinoline] stands 89.7 nM. `CCC(c1nc2ncc(Cl)cc2[nH]1)[C@H]1CC[C@@H](c2ccnc(F)c2C)CC1` (single isomer, unassigned) [Example 24-2, 6-chloro-2-(1-((cis)-4-(2-fluoro-3-methylpyridin-4-yl)cyclohexyl)-3-propyl)-1H-imidazo[4,5-b]pyridine]: the midpoint of inhibition, the IC50, lay at 2.7 nM. The figure for `CCC(c1nc2ncc(Cl)cc2[nH]1)[C@H]1CC[C@@H](c2ccnc3ccc(C(F)(F)F)cc32)CC1` (mixture of isomers) [Example 22, (±)-4-((cis)-4-(1-(6-chloro-1H-imidazo[4,5-b]pyridin-2-yl)propyl)cyclohexyl)-6-(trifluoromethyl)quinoline] is 3.7 nM; for `CC[C@H](c1nc2ncc(Cl)cc2[nH]1)[C@H]1CC[C@@H](c2ccnc3ccc(F)cc32)CC1` (single isomer, unassigned) [Example 21-1, 4-(4-(1-(6-chloro-1H-imidazo[4,5-b]pyridin-2-yl)propyl)cyclohexyl)-6-fluoroquinoline] it is 2 nM; for `CCC(c1nc2ccc(Cl)cc2[nH]1)[C@H]1CC[C@@H](c2ccnc(F)c2C)CC1` (single isomer, unassigned) [Example 23-2, 6-chloro-2-(1-((cis)-4-(2-fluoro-3-methylpyridin-4-yl)cyclohexyl)-3-propyl)-1H-benzo[d]imidazole] it is 3.2 nM. Take `CCC(c1nc2ncc(Cl)cc2[nH]1)[C@H]1CC[C@H](Oc2ccnc3ccccc23)CC1` (mixture of isomers) [Example 20, (±)-4-(((trans)-4-(1-(6-chloro-1H-imidazo[4,5-b]pyridin-2-yl)-3-propyl)cyclohexyl)oxy)quinoline]: inhibition was half-maximal at 5.8 nM (IC50).

`C[C@@H](c1nc2ccc(Cl)cc2c(=O)[nH]1)[C@H]1CC[C@@H](c2ccnc3ccc(F)cc32)CC1` [Example 29, 6-chloro-2-((R)-1-((cis)-4-(6-fluoroquinolin-4-yl)cyclohexyl)ethyl)quinazolin-4(3H)-one] registered an IC50 of 143 nM. Under `CCC(c1nc2ncc(Cl)cc2[nH]1)[C@H]1CC[C@H](Oc2ccnc3ccccc23)CC1` (single isomer, unassigned) [Example 20-2] stands 4.5 nM.

The IC50 is the concentration that gives 50% inhibition. A high value points to weaker potency.
